Measured values taken from patent US11380440B1, “Marker screening and signal detection” (Cerner Innovation, Inc., priority 2011, dated 2022).

Tested on: patients admitted to hospital with AMI

| SMILES | actual number of deaths (386 exposed patients of the 6,699 cohort (FIG. 4A column 415)) | expected number of deaths (Monte Carlo simulation, 2,000 burn-in and 50,000 iterations (FIG. 4A column 420)) | in-house mortality percentage (count of deaths from the number receiving exposure) (Table 500 column 520, cohort of 6,699 AMI inpatients, 5.7% of the cohort died) [%] |
| --- | --- | --- | --- |
| O=C(O)c1cn(C2CC2)c2cc(N3CCNCC3)c(F)cc2c1=O [Ciprofloxacin] | 129 | 28.3 | – |
| CC(C)c1c(C(=O)Nc2ccccc2)c(-c2ccccc2)c(-c2ccc(F)cc2)n1CC[C@@H](O)C[C@@H](O)CC(=O)O [atorvastatin] | – | – | 3.4 |
